The values below come from ChEMBL document CHEMBL2412998, “Search for a novel SIRT1 activator: structural modification of SRT1720 and biological evaluation” (Bioorg Med Chem Lett, 2013).

Calls of active or inactive are those of the source. The calls are words filed in the database; no cut-off is given here.

In experiment [1] the target is T1, NAD-dependent protein deacetylase sirtuin-1 (Homo sapiens) (UniProt Q96EB6).
T1 sequence (whole entry): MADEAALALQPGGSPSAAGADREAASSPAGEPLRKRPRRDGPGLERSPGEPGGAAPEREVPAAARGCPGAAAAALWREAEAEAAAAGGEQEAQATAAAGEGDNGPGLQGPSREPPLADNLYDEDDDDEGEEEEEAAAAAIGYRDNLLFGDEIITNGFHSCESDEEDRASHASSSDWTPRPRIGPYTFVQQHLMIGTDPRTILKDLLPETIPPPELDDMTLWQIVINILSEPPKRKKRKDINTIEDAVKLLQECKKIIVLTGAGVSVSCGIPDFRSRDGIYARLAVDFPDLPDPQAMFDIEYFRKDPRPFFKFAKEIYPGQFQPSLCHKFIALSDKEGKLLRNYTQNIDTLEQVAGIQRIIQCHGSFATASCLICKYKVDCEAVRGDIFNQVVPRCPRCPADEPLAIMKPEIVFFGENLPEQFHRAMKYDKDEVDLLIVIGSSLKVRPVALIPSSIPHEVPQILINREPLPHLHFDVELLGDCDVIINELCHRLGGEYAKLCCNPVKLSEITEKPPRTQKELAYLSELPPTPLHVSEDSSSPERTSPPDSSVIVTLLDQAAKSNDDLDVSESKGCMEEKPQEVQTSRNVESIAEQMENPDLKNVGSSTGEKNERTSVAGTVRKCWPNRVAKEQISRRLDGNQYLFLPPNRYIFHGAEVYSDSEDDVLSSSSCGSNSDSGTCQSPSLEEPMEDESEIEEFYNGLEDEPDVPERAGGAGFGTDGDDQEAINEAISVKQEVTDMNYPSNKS
Description: Activation of human recombinant SIRT1 at 10 uM preincubated for 60 mins prior to substrate addition measured after 60 mins by fluorescence assay.

Experiment [2] has as its target T1, NAD-dependent protein deacetylase sirtuin-1 (Homo sapiens). Description: Activation of human recombinant SIRT1 at 100 uM preincubated for 60 mins prior to substrate addition measured after 60 mins by fluorescence assay.

As for `O=C(Nc1ccccc1-c1cn2c(CN3CCNCC3)csc2n1)c1cccc2ccccc12`, the outcome in experiment [1] was inactive.
Turning to `O=C(Nc1cccc(-c2cn3c(CN4CCNCC4)csc3n2)c1)c1cc2ccccc2[nH]1`, the result in experiment [1] was inactive.
Turning to `COCCOCOCc1csc2nc(-c3ccccc3NC(=O)c3cnc4ccccc4n3)cn12`, the result in experiment [1] was inactive.
For `O=C(Nc1cccc(-c2cn3c(CN4CCNCC4)csc3n2)c1)c1cnc2ccccc2c1`, in experiment [1], the Activity came to 140%. In addition, in experiment [2], the outcome was Active.
As to `O=C(Nc1cccc(-c2cn3c(CN4CCNCC4)csc3n2)c1)c1cnccn1`, the result in experiment [1] was inactive.
As to `O=C(Nc1cccc(-c2cn3c(CN4CCCCC4)csc3n2)c1)c1cnc2ccccc2n1`, in experiment [1], the result was inactive.
As to `COCc1csc2nc(-c3ccccc3NC(=O)c3cnc4ccccc4n3)cn12`, in experiment [1], the result was inactive.
`O=C(Nc1cccc(-c2cn3c(CN4CCNCC4)csc3n2)c1)c1cnc2ccccc2n1`: the result in experiment [1] and in experiment [2] was Active.
In the case of `O=C(Nc1ccc(-c2cn3c(CN4CCNCC4)csc3n2)cc1)c1cnc2ccccc2n1`, the outcome in experiment [1] was inactive.
With `O=C(Nc1ccccc1-c1cn2c(CN3CCNCC3)csc2n1)c1cnc2ccccc2n1`, the Activity in experiment [1] is 160%. Besides, the result in experiment [2] was Active.
Regarding `O=C(Nc1ccccc1-c1cn2c(CN3CCNCC3)csc2n1)c1ccnc2ccccc12`, the outcome in experiment [1] was inactive.
In the case of `CNCc1csc2nc(-c3ccccc3NC(=O)c3cnc4ccccc4n3)cn12`, the result in experiment [1] was inactive.
As for `O=C(Nc1cccc(-c2cn3c(CN4CCCC4)csc3n2)c1)c1cnc2ccccc2n1`, in experiment [1], the outcome was inactive.
Still for that read-out and setting: the entry for `O=C(Nc1cccc(-c2cn3c(CN4CCOCC4)csc3n2)c1)c1cnc2ccccc2n1` is “inactive”.
For the compound `O=C(Nc1cccc(-c2cn3c(CN4CCNCC4)csc3n2)c1)c1ccc2ccccc2n1`, the Activity in experiment [1] worked out at 140%. For the same compound, the result in experiment [2] was Active.
As to `O=C(Nc1ccccc1-c1cn2c(CN3CCNCC3)csc2n1)c1ccc2ccccc2c1`, in experiment [1], the outcome was inactive.
As to `O=C(Nc1cccc(-c2cn3c(CN4CCNCC4)csc3n2)c1)c1ccnc2ccccc12`, in experiment [1], the result was inactive.
